Source: PubChem BioAssay AID2060349 (Molecular Pharmacology Branch, DTP, NCI, 2025)

Tested on: 762968-020-R-J2-PDC spheroids viability
Test: Anticancer human tumor 762968-020-R-J2-PDC patient-derived colon carcinoma cell line growth inhibition [TAK]
Details: spheroids with HUVEC and MSC; for IC50: curve of first compound; for viability, T/C: stronger effect = lower value
Method in brief: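 Tumor cells were grown as spheroids with HUVEC and hMSC (60:25:15) and treated with targeted agents combined with TAK-243 or ipatasertib. Drugs were tested in half-log steps down from near the clinical Cmax, or from 10 microM where Cmax was unknown.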

[1] = second compound 0.3 µM, first compound 0.0316 µM
[2] = second compound 0.3 µM, first compound 0.1 µM
[3] = second compound 0.3 µM, first compound 0.316 µM
[4] = second compound 0.3 µM, first compound 1 µM
[5] = second compound 0.949 µM, first compound 0.0316 µM
[6] = second compound 0.949 µM, first compound 0.1 µM
[7] = second compound 0.949 µM, first compound 0.316 µM
[8] = second compound 0.949 µM, first compound 1 µM
[9] = second compound 3 µM, first compound 0.0316 µM
[10] = second compound 3 µM, first compound 0.1 µM
[11] = second compound 3 µM, first compound 0.316 µM
[12] = second compound 3 µM, first compound 1 µM
[13] = second compound 9.49 µM, first compound 0.0316 µM
[14] = second compound 9.49 µM, first compound 0.1 µM
[15] = second compound 9.49 µM, first compound 0.316 µM
[16] = second compound 9.49 µM, first compound 1 µM
[17] = second compound 30 µM, first compound 0.0316 µM
[18] = second compound 30 µM, first compound 0.1 µM
[19] = second compound 30 µM, first compound 0.316 µM
[20] = second compound 30 µM, first compound 1 µM
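Also: spheroids exposed to drug for 7 days before readout.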
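For viability, T/C in this document: 100% = DMSO vehicle control wells.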

Structure (SMILES) | IC50 (second compound 0.3 µM) [µM] | IC50 (second compound 0.949 µM) [µM] | IC50 (second compound 3 µM) [µM] | IC50 (second compound 9.49 µM) [µM] | IC50 (second compound 30 µM) [µM] | viability, T/C [1] [%] | viability, T/C [2] [%] | viability, T/C [3] [%] | viability, T/C [4] [%] | viability, T/C [5] [%] | viability, T/C [6] [%] | viability, T/C [7] [%] | viability, T/C [8] [%] | viability, T/C [9] [%] | viability, T/C [10] [%] | viability, T/C [11] [%] | viability, T/C [12] [%] | viability, T/C [13] [%] | viability, T/C [14] [%] | viability, T/C [15] [%] | also measured
COc1c(OCCCN2CCOCC2)ccc2c3n(c(=NC(=O)c4cnc(N)nc4)nc12)CCN3 + CC(C)NCC(C(=O)N1CCN(c2ncnc3c2C(C)CC3O)CC1)c1ccc(Cl)cc1 | > 1 | > 1 | > 1 | > 1 | > 1 | 89.3 | 85.1 | 69.4 | 66.8 | 94 | 84.7 | 71.3 | 70 | 98.3 | 89.9 | 71.6 | 60.2 | 88.6 | 85 | 78 | viability, T/C (second compound 0.3 µM, first compound 0.00316 µM): 95.4%; viability, T/C (second compound 0.3 µM, first compound 0.01 µM): 101%; viability, T/C (second compound 0.949 µM, first compound 0.00316 µM): 101%; viability, T/C (second compound 0.949 µM, first compound 0.01 µM): 96.7%; viability, T/C (second compound 3 µM, first compound 0.00316 µM): 105%; viability, T/C (second compound 3 µM, first compound 0.01 µM): 100%; viability, T/C (second compound 9.49 µM, first compound 0.00316 µM): 102%; viability, T/C (second compound 9.49 µM, first compound 0.01 µM): 94.7%; viability, T/C [16]: 67%; viability, T/C (second compound 30 µM, first compound 0.00316 µM): 91.8%; viability, T/C (second compound 30 µM, first compound 0.01 µM): 81.3%; viability, T/C [17]: 79.4%; viability, T/C [18]: 69.5%; viability, T/C [19]: 68.7%; viability, T/C [20]: 59.1%
Cc1nc(NC(=O)N2CCCC2C(N)=O)sc1-c1ccnc(C(C)(C)C(F)(F)F)c1 (stereo not given) + CC(C)NCC(C(=O)N1CCN(c2ncnc3c2C(C)CC3O)CC1)c1ccc(Cl)cc1 | > 10 | > 10 | > 10 | > 10 | > 10 | 119 | 109 | 99.4 | 92.5 | 113 | 111 | 97.2 | 102 | 108 | 109 | 108 | 102 | 110 | 108 | 105 | viability, T/C (second compound 0.3 µM, first compound 3.16 µM): 98.8%; viability, T/C (second compound 0.3 µM, first compound 10 µM): 89.7%; viability, T/C (second compound 0.949 µM, first compound 3.16 µM): 99.5%; viability, T/C (second compound 0.949 µM, first compound 10 µM): 94.6%; viability, T/C (second compound 3 µM, first compound 3.16 µM): 94.4%; viability, T/C (second compound 3 µM, first compound 10 µM): 99.7%; viability, T/C [16]: 106%; viability, T/C (second compound 9.49 µM, first compound 3.16 µM): 94%; viability, T/C (second compound 9.49 µM, first compound 10 µM): 89.6%; viability, T/C [17]: 78.6%; viability, T/C [18]: 81.5%; viability, T/C [19]: 81.8%; viability, T/C [20]: 75.7%; viability, T/C (second compound 30 µM, first compound 3.16 µM): 74.3%; viability, T/C (second compound 30 µM, first compound 10 µM): 69.8%
